Measured values from patent US20230085307A1, “PYRIDAZINONE COMPOUND AND HERBICIDE” (NISSAN CHEMICAL CORPORATION, priority 2019, published 2023).

Key:
[1] = test system: late watergrass; test: Test Example 1: herbicidal activity, application before weed generation under submerged conditions (Table 16, symbol A); assay type: in vivo, late watergrass (Echinochloa oryzicola); conditions: 320 g/ha applied herbicide
Summary of the method: (§1)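 Emulsion formulation, water-diluted to set dose, was put onto the flooded surface (4 cm depth, alluvial soil) the same day weeds were sown and 2.5-leaf rice transplanted. After 3 weeks at 25-30 °C under glass, each species was rated 0 (≤5% kill) to 5 (≥90% kill).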

[2] = test system: velvetleaf; test: Test Example 5: herbicidal effect by foliage application, plastic box (Table 20, symbol M); assay type: in vivo, velvetleaf (Abutilon theophrasti); conditions: foliage application, 320 g/ha, three weeks after application
Summary of the method: (§2)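 Plants were sown into sterilized diluvial soil under about 1.5 cm cover and kept in a greenhouse at 25° C. to 30° C. Fourteen days on, foliage received an even spray of the diluted emulsion. Herbicidal or crop effect was judged three weeks afterwards.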

[3] = test system: Italian ryegrass; test: Test Example 4: herbicidal effect by soil treatment (Table 19, symbol K); assay type: in vivo, Italian ryegrass (Lolium multiflorum); conditions: amount of applied herbicide 320 g/ha
Summary of the method: (§3)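 Pre-emergence style soil spray: seeds under ~1.5 cm sterilized diluvial soil received a uniform coat of emulsion diluted to the predetermined herbicide amount. Greenhouse 25–30° C; readout at week three on previously defined criteria.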

[4] = test system: green foxtail; test: Test Example 5: herbicidal effect by foliage application, plastic box (Table 20, symbol G); assay type: in vivo, green foxtail (Setaria viridis); conditions: foliage application, 320 g/ha, three weeks after application
Summary of the method: as §2

[5] = test system: wild oat; test: Test Example 5: herbicidal effect by foliage application, plastic box (Table 20, symbol I); assay type: in vivo, wild oat (Avena fatua); conditions: foliage application, 320 g/ha, three weeks after application
Summary of the method: as §2

[6] = test system: rice flat sedge; test: Test Example 3: herbicidal effect by foliage application, Wagner pot (Table 18, symbol E); assay type: in vivo, rice flat sedge (Cyperus iria); conditions: 320 g/ha
Summary of the method: (§4)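 Plants were sown in alluvial soil held under 0.1–0.5 cm standing water and grown 14 days in a greenhouse at 25–30 °C. An emulsifiable formulation, water-diluted to the set dose, was then sprayed onto the foliage, and effects were scored three weeks later using previously defined criteria.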

[7] = test system: chickweed; test: Test Example 4: herbicidal effect by soil treatment (Table 19, symbol P); assay type: in vivo, common chickweed (Stellaria media); conditions: amount of applied herbicide 320 g/ha
Summary of the method: as §3

[8] = test system: Japanese bulrush; test: Test Example 1: herbicidal activity, application before weed generation under submerged conditions (Table 16, symbol B); assay type: in vivo, Japanese bulrush (Schoenoplectus juncoides); conditions: 320 g/ha applied herbicide
Summary of the method: as §1

[9] = test system: persian speedwell; test: Test Example 4: herbicidal effect by soil treatment (Table 19, symbol R); assay type: in vivo, Persian speedwell (Veronica persica); conditions: amount of applied herbicide 320 g/ha
Summary of the method: as §3

[10] = test system: southern crabgrass; test: Test Example 5: herbicidal effect by foliage application, plastic box (Table 20, symbol F); assay type: in vivo, southern crabgrass (Digitaria ciliaris); conditions: foliage application, 320 g/ha, three weeks after application
Summary of the method: as §2

[11] = test system: green foxtail; test: Test Example 4: herbicidal effect by soil treatment (Table 19, symbol G); assay type: in vivo, green foxtail (Setaria viridis); conditions: amount of applied herbicide 320 g/ha
Summary of the method: as §3

[12] = test system: velvetleaf; test: Test Example 4: herbicidal effect by soil treatment (Table 19, symbol M); assay type: in vivo, velvetleaf (Abutilon theophrasti); conditions: amount of applied herbicide 320 g/ha
Summary of the method: as §3

[13] = test system: barnyard grass; test: Test Example 4: herbicidal effect by soil treatment (Table 19, symbol H); assay type: in vivo, barnyard grass (Echinochloa crus-galli); conditions: amount of applied herbicide 320 g/ha
Summary of the method: as §3

[14] = test system: windgrass; test: Test Example 5: herbicidal effect by foliage application, plastic box (Table 20, symbol L); assay type: in vivo, windgrass (Apera spica-venti); conditions: foliage application, 320 g/ha, three weeks after application
Summary of the method: as §2

[15] = test system: lambsquarters; test: Test Example 5: herbicidal effect by foliage application, plastic box (Table 20, symbol O); assay type: in vivo, lambsquarters (Chenopodium album); conditions: foliage application, 320 g/ha, three weeks after application
Summary of the method: as §2

[16] = test system: oval-leafed pondweed; test: Test Example 1: herbicidal activity, application before weed generation under submerged conditions (Table 16, symbol C); assay type: in vivo, oval-leafed pondweed (Monochoria vaginalis); conditions: 320 g/ha applied herbicide
Summary of the method: as §1

[17] = test system: redroot pigweed; test: Test Example 5: herbicidal effect by foliage application, plastic box (Table 20, symbol N); assay type: in vivo, redroot pigweed (Amaranthus retroflexus); conditions: foliage application, 320 g/ha, three weeks after application
Summary of the method: as §2

[18] = test system: blackgrass; test: Test Example 5: herbicidal effect by foliage application, plastic box (Table 20, symbol J); assay type: in vivo, blackgrass (Alopecurus myosuroides); conditions: foliage application, 320 g/ha, three weeks after application
Summary of the method: as §2

[19] = test system: Italian ryegrass; test: Test Example 5: herbicidal effect by foliage application, plastic box (Table 20, symbol K); assay type: in vivo, Italian ryegrass (Lolium multiflorum); conditions: foliage application, 320 g/ha, three weeks after application
Summary of the method: as §2

[20] = test system: wild oat; test: Test Example 4: herbicidal effect by soil treatment (Table 19, symbol I); assay type: in vivo, wild oat (Avena fatua); conditions: amount of applied herbicide 320 g/ha
Summary of the method: as §3

[21] = test system: barnyard grass; test: Test Example 5: herbicidal effect by foliage application, plastic box (Table 20, symbol H); assay type: in vivo, barnyard grass (Echinochloa crus-galli); conditions: foliage application, 320 g/ha, three weeks after application
Summary of the method: as §2

[22] = test system: blackgrass; test: Test Example 4: herbicidal effect by soil treatment (Table 19, symbol J); assay type: in vivo, blackgrass (Alopecurus myosuroides); conditions: amount of applied herbicide 320 g/ha
Summary of the method: as §3

[23] = test system: Chinese sprangletop; test: Test Example 3: herbicidal effect by foliage application, Wagner pot (Table 18, symbol D); assay type: in vivo, chinese sprangletop (Leptochloa chinensis); conditions: 320 g/ha
Summary of the method: as §4

[24] = test system: redroot pigweed; test: Test Example 4: herbicidal effect by soil treatment (Table 19, symbol N); assay type: in vivo, redroot pigweed (Amaranthus retroflexus); conditions: amount of applied herbicide 320 g/ha
Summary of the method: as §3

[25] = test system: lambsquarters; test: Test Example 4: herbicidal effect by soil treatment (Table 19, symbol O); assay type: in vivo, lambsquarters (Chenopodium album); conditions: amount of applied herbicide 320 g/ha
Summary of the method: as §3

[26] = test system: windgrass; test: Test Example 4: herbicidal effect by soil treatment (Table 19, symbol L); assay type: in vivo, windgrass (Apera spica-venti); conditions: amount of applied herbicide 320 g/ha
Summary of the method: as §3

[27] = test system: persian speedwell; test: Test Example 5: herbicidal effect by foliage application, plastic box (Table 20, symbol R); assay type: in vivo, Persian speedwell (Veronica persica); conditions: foliage application, 320 g/ha, three weeks after application
Summary of the method: as §2

[28] = test system: chickweed; test: Test Example 5: herbicidal effect by foliage application, plastic box (Table 20, symbol P); assay type: in vivo, common chickweed (Stellaria media); conditions: foliage application, 320 g/ha, three weeks after application
Summary of the method: as §2

[29] = test system: southern crabgrass; test: Test Example 4: herbicidal effect by soil treatment (Table 19, symbol F); assay type: in vivo, southern crabgrass (Digitaria ciliaris); conditions: amount of applied herbicide 320 g/ha
Summary of the method: as §3

[30] = test system: barnyard grass; test: Test Example 3: herbicidal effect by foliage application, Wagner pot (Table 18, symbol H); assay type: in vivo, barnyard grass (Echinochloa crus-galli); conditions: 320 g/ha
Summary of the method: as §4

SMILES	Herbicidal effect on A: late watergrass (grade 0-5) [1]	herbicidal effect grade, M: velvetleaf [2]	herbicidal effect rating, K: Italian ryegrass [3]	herbicidal effect grade, G: green foxtail [4]	herbicidal effect grade, I: wild oat [5]	herbicidal effect on E (rice flat sedge), rating 0-5 [6]	herbicidal effect rating, P: chickweed [7]	Herbicidal effect on B: Japanese bulrush (grade 0-5) [8]	herbicidal effect rating, R: persian speedwell [9]	herbicidal effect grade, F: southern crabgrass [10]	herbicidal effect rating, G: green foxtail [11]	herbicidal effect rating, M: velvetleaf [12]	herbicidal effect rating, H: barnyard grass [13]	herbicidal effect grade, L: windgrass [14]	herbicidal effect grade, O: lambsquarters [15]	Herbicidal effect on C: oval-leafed pondweed (grade 0-5) [16]	herbicidal effect grade, N: redroot pigweed [17]	herbicidal effect grade, J: blackgrass [18]	herbicidal effect grade, K: Italian ryegrass [19]	herbicidal effect rating, I: wild oat [20]	other results
CCCC(=O)Oc1c(C)nn(C)c(=O)c1-c1c(-c2ccccc2OCC)sc2ccccc12 [1-012]	3 (Herbicidal rate of 40% or more and less than 70%)	3 (Herbicidal rate of 40% or more and less than 70%)	0 (Herbicidal rate of 5% or less (almost no effect))	5 (Herbicidal rate of 90% or more (almost completely withered))	4 (Herbicidal rate of 70% or more and less than 90%)	5 (Herbicidal rate of 90% or more (almost completely withered))	0 (Herbicidal rate of 5% or less (almost no effect))	1 (Herbicidal rate of 5% or more and less than 20%)	0 (Herbicidal rate of 5% or less (almost no effect))	5 (Herbicidal rate of 90% or more (almost completely withered))	5 (Herbicidal rate of 90% or more (almost completely withered))	0 (Herbicidal rate of 5% or less (almost no effect))	5 (Herbicidal rate of 90% or more (almost completely withered))	4 (Herbicidal rate of 70% or more and less than 90%)	2 (Herbicidal rate of 20% or more and less than 40%)	3 (Herbicidal rate of 40% or more and less than 70%)	3 (Herbicidal rate of 40% or more and less than 70%)	4 (Herbicidal rate of 70% or more and less than 90%)	3 (Herbicidal rate of 40% or more and less than 70%)	1 (Herbicidal rate of 5% or more and less than 20%)	herbicidal effect grade, H: barnyard grass [21]: 5 (Herbicidal rate of 90% or more (almost completely withered)); herbicidal effect rating, J: blackgrass [22]: 5 (Herbicidal rate of 90% or more (almost completely withered)); herbicidal effect on D (Chinese sprangletop), rating 0-5 [23]: 0 (Herbicidal rate of 5% or less (almost no effect)); herbicidal effect rating, N: redroot pigweed [24]: 0 (Herbicidal rate of 5% or less (almost no effect)); herbicidal effect rating, O: lambsquarters [25]: 0 (Herbicidal rate of 5% or less (almost no effect)); herbicidal effect rating, L: windgrass [26]: 3 (Herbicidal rate of 40% or more and less than 70%); herbicidal effect grade, R: persian speedwell [27]: 5 (Herbicidal rate of 90% or more (almost completely withered)); herbicidal effect grade, P: chickweed [28]: 5 (Herbicidal rate of 90% or more (almost completely withered)); herbicidal effect rating, F: southern crabgrass [29]: 4 (Herbicidal rate of 70% or more and less than 90%); herbicidal effect on H (barnyard grass), rating 0-5 [30]: 5 (Herbicidal rate of 90% or more (almost completely withered))
CCCC(=O)Oc1c(C)nn(C)c(=O)c1-c1c(-c2ccc(F)c(F)c2)sc2ccccc12 [1-047]	3 (Herbicidal rate of 40% or more and less than 70%)	5 (Herbicidal rate of 90% or more (almost completely withered))	0 (Herbicidal rate of 5% or less (almost no effect))	0 (Herbicidal rate of 5% or less (almost no effect))	0 (Herbicidal rate of 5% or less (almost no effect))	5 (Herbicidal rate of 90% or more (almost completely withered))	5 (Herbicidal rate of 90% or more (almost completely withered))	0 (Herbicidal rate of 5% or less (almost no effect))	5 (Herbicidal rate of 90% or more (almost completely withered))	0 (Herbicidal rate of 5% or less (almost no effect))	2 (Herbicidal rate of 20% or more and less than 40%)	0 (Herbicidal rate of 5% or less (almost no effect))	3 (Herbicidal rate of 40% or more and less than 70%)	0 (Herbicidal rate of 5% or less (almost no effect))	3 (Herbicidal rate of 40% or more and less than 70%)	0 (Herbicidal rate of 5% or less (almost no effect))	3 (Herbicidal rate of 40% or more and less than 70%)	0 (Herbicidal rate of 5% or less (almost no effect))	0 (Herbicidal rate of 5% or less (almost no effect))	0 (Herbicidal rate of 5% or less (almost no effect))	herbicidal effect grade, H: barnyard grass [21]: 0 (Herbicidal rate of 5% or less (almost no effect)); herbicidal effect rating, J: blackgrass [22]: 0 (Herbicidal rate of 5% or less (almost no effect)); herbicidal effect on D (Chinese sprangletop), rating 0-5 [23]: 0 (Herbicidal rate of 5% or less (almost no effect)); herbicidal effect rating, N: redroot pigweed [24]: 0 (Herbicidal rate of 5% or less (almost no effect)); herbicidal effect rating, O: lambsquarters [25]: 3 (Herbicidal rate of 40% or more and less than 70%); herbicidal effect rating, L: windgrass [26]: 0 (Herbicidal rate of 5% or less (almost no effect)); herbicidal effect grade, R: persian speedwell [27]: 3 (Herbicidal rate of 40% or more and less than 70%); herbicidal effect grade, P: chickweed [28]: 5 (Herbicidal rate of 90% or more (almost completely withered)); herbicidal effect rating, F: southern crabgrass [29]: 0 (Herbicidal rate of 5% or less (almost no effect)); herbicidal effect on H (barnyard grass), rating 0-5 [30]: 2 (Herbicidal rate of 20% or more and less than 40%)
